According to patent US20250368647A1, “NITROGEN CONTAINING CONDENSED 2,3-DIHYDROQUINAZOLINONE COMPOUNDS AS NAV1.8 INHIBITORS” (GLAXOSMITHKLINE INTELLECTUAL PROPERTY DEVELOPMENT LIMITED, priority 2022, published 2025):

The compounds below were run against human Nav1.8 (Homo sapiens (Human), UniProt Q9Y5Y9) (assay: QPatch 48 HTX voltage-clamp electrophysiology, half inactivation state (V1/2) protocol, HEK293-Nav1.8 cells). Conditions: HEK293 cells expressing human Nav1.8, human Navβ1 and human TREK1, P2 current.
human Nav1.8, sequence (Q9Y5Y9 whole entry): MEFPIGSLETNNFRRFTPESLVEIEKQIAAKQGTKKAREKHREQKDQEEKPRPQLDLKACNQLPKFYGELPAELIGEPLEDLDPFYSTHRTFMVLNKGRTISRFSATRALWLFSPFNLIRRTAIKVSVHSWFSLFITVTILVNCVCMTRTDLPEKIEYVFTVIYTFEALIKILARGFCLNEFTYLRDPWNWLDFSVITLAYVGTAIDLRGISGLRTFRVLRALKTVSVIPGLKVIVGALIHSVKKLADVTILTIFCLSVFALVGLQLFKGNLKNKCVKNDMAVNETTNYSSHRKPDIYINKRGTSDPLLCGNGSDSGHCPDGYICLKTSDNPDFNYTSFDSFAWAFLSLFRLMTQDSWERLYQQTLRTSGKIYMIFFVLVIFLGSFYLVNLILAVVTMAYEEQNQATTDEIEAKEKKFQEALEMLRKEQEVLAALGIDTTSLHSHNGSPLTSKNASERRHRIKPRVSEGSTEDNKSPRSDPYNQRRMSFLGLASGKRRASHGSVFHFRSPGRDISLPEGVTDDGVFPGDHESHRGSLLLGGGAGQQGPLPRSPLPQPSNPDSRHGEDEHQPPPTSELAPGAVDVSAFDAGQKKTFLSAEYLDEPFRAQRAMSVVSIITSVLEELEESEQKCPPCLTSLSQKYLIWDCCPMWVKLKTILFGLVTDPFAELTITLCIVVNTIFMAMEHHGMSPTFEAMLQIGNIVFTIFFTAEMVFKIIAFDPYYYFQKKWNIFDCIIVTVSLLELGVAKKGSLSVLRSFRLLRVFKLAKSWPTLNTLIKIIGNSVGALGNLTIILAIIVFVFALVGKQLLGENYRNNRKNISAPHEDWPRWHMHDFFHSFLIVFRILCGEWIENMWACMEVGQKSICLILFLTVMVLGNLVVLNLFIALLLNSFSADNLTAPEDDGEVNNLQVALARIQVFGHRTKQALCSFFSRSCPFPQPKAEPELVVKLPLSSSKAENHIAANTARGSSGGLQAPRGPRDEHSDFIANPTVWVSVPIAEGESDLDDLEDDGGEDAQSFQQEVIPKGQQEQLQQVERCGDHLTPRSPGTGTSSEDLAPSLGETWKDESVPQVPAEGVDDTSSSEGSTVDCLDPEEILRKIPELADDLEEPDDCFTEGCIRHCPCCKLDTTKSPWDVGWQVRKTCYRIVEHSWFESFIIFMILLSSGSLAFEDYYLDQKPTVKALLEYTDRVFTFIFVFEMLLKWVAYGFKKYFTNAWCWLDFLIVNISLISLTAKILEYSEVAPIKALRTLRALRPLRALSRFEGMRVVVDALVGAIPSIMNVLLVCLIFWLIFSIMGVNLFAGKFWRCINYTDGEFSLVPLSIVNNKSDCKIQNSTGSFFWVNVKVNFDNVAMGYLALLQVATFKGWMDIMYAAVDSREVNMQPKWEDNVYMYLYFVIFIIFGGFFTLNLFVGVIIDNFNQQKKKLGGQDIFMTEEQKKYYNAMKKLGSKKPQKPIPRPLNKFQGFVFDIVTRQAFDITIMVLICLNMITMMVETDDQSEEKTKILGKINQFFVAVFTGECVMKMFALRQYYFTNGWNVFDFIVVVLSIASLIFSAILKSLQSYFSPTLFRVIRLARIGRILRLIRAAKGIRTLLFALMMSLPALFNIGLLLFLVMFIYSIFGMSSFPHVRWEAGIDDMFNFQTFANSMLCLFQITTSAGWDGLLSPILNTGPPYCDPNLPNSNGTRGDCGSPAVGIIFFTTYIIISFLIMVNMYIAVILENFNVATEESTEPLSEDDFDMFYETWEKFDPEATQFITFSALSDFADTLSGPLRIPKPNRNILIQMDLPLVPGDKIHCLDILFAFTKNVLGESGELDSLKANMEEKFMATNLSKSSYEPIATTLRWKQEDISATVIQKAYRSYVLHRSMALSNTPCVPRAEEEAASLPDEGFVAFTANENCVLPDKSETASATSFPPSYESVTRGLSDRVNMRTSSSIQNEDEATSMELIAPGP
human Nav1.8, sequence (Q07699 19-218 partner): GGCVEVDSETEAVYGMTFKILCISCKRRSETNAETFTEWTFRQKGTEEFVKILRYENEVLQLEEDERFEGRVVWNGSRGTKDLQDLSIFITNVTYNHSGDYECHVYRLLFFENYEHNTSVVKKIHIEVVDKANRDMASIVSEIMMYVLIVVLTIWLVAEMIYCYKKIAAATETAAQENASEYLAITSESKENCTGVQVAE
Format: cell-based
Description: Human embryonic kidney 293 cells (HEK293) expressing human Nav1.8, human Navβ1 and human TREK1 (HEK293-Nav1.8) were grown in T150 cell culture flasks at 37° C., 5% CO2 incubator. HEK293-Nav1.8 were passaged every 2-3 days when confluency reached 80-90% in T150 cell culture flasks.
Pharmacological assessment of compounds of the invention was performed using the QPatch 48 HTX electrophysiological platform. HEK293-Nav1.8 cells were prepared on the day of use by removing culture media, washing in DPBS, adding Accutase (2 mL to cover the surface, aspirate 1 mL then 1-2 minutes at 37° C.) followed by addition of CHO-SFM II to stop the enzyme digestion and in order to obtain a suspension of 3×10^6 cell/mL.
Compounds of the invention were prepared in an extracellular solution of the following composition: NaCl (145 mM), KCl (4 mM), CaCl2) (2 mM), MgCl (2 mM), HEPES (1 mM), Glucose (10 mM), pH 7.4 with NaOH Osmolality 300 mOsM/L. An intracellular solution of the following composition was used: CsF (115 mM), CsCl (20 mM), NaCl (5 mM), EGTA (10 mM), HEPES (10 mM), Sucrose (20 mM), pH 7.2 with CsOH Osmolality 310 mOsm/L.
Utilizing the voltage-clamp mode in the QPatch 48 HTX system a half inactivation state voltage protocol (V1/2) was used to determine pharmacological activity of compounds of the invention at Nav1.8 ion channels. A V1/2 protocol was utilized with the following voltage steps: a holding voltage of −100 mV was established followed by a 20 ms voltage step to 0 mV (P1), followed by an inactivating voltage step at −46 mV for 8 seconds, followed by a step to −100 mV for 20 ms, before a 20 ms step to 0 mV (P2), then returned to the holding voltage of −100 mV. This voltage protocol was repeated at a frequency of every 15 seconds, the current magnitude was quantified at the P2 step throughout the recording. Inhibition of the measured current amplitude with compounds of the invention was analyzed by fitting a 4-6 points dose-response curve allowing determination of the fifty percent inhibition concentration (IC50). P2 currents were normalized according to measurements made at baseline (Baseline, vehicle only), after compound (Input, at each test concentration), and after positive reference compound (FullResponse, to achieve complete block), fit to the following equation: […]
To assess current run-down over the course of the experiment vehicle-only wells were utilized and the normalized current with vehicle-only (n.IVEH) was determined. To correct the compound response for run-down, the currents were corrected according to the following formula: […]
Compound inhibition was fitted to the following Hill Equation to estimate the half maximal inhibition concentration (IC50)
[formula] • where Y is the normalized run-down corrected inhibition relative to the vehicle control (equivalent to n.IRD_Correct), C the test compound concentration, IC50 the concentration of test compound to inhibit the sodium current by 50%, and h the Hill coefficient.

Row | SMILES | Nav1.8, pIC50
1 | O=C1c2cc(C(F)(F)F)ncc2N2CN1c1ccc(=O)[nH]c1NCCCc1c2ccc(F)c1F [Example 38, 8,9-Diluoro-2-(trifluoromethyl)-10,11,12,13-tetrahydro-19H-5,18-methanodibenzo[i]dipyrido[2,3,-b:4′,3′-f][1,4,8]triazacyclotridecine-15,19(14H)-dione] | 6.8
2 | O=C1c2cc(C(F)(F)F)ccc2N2CN1c1ccc(=O)[nH]c1CCCCc1cc(F)ccc12 [Example 4, 8-Fluoro-2-(trifluoromethyl)-10,11,12,13-tetrahydro-19H-5,18-methanodibenzo[b,l]pyridino[3,2-f][1,5]diazacyclotridecine-15,19(14H)-dione] | 6.8
3 | N#Cc1cc2c(cc1F)C(=O)N1CN2c2ccc(F)c(Cl)c2CNCCc2[nH]c(=O)ccc21 [Example 67, 9-chloro-2,8-difluoro-15,19-dioxo-10,11,12,13,14,15-hexahydro-19H-5,18-methanodibenzo[c,f]pyrido[3,2-j][1,5,9]triazacyclotridecine-3-carbonitrile] | 8.3
4 | O=C1c2cc(C(F)(F)F)cnc2N2CN1c1ccc(=O)[nH]c1NCCCc1cc(F)ccc12 [Example 34, 8-Fluoro-2-(trifluoromethyl)-10,11,12,13-tetrahydro-19H-5,18-methanodibenzo[i]dipyrido[2,3,-b:3′,2′-f][1,4,8]triazacyclotridecine-15,19(14H)-dione] | 6.4
5 | O=C1c2cnc(C(F)(F)F)cc2N2CN1c1ccc(=O)[nH]c1NCCCc1cc(F)ccc12 [Example 36, 8-Fluoro-3-(trifluoromethyl)-10,11,12,13-tetrahydro-19H-5,18-methanodibenzo[i]dipyrido[2,3,-b:3′,4′-f][1,4,8]triazacyclotridecine-15,19(14H)-dione] | 6.6
6 | Cl.O=C1c2cc(F)c(Br)cc2N2CN1c1ccc(=O)[nH]c1CCNCc1c2ccc(F)c1F [Example 62, 3-Bromo-2,8,9-trifluoro-10,11,12,13-tetrahydro-19H-5,18-methanodibenzo[c,f]pyrido[3,2-j][1,5,9]triazacyclotridecine-15,19(14H)-dione hydrochloride] | 8.2
7 | O=C1c2cc(F)c(C(F)(F)F)cc2N2CN1c1ccc(=O)[nH]c1CCNCc1cc(F)ccc12 [Example 44, 2,8-Difluoro-3-(trifluoromethyl)-10,11,12,13-tetrahydro-19H-5,18-methanodibenzo[c,f]pyrido[3,2-i][1,5,9]triazacyclotridecine-15,19(14H)-dione] | 8.6
8 | O=C1c2cc(Cl)c(F)cc2N2CN1c1ccc(=O)[nH]c1CCNCc1cc(F)ccc12 [Example 43, 2-Chloro-3,8-difluoro-10,11,12,13-tetrahydro-19H-5,18-methanodibenzo[c,f]pyrido[3,2-f][1,5,9]triazacyclotridecine-15,19(14H)-dione] | 7.4
9 | O=C1c2cc(C(F)(F)F)ccc2N2CN1c1ccc(=O)[nH]c1CCCOc1cc(F)ccc12 [Example 16, 8-Fluoro-2-(trifluoromethyl)-12,13-dihydro-11H,19H-5,18-methanodibenzo[b,e]pyrido[3,2-i][1]oxa[4,8]diazacyclotridecine-15,19(14H)-dione] | 6.0
10 | O=C1c2cc(C(F)(F)F)ncc2N2CN1c1ccc(=O)[nH]c1NCCCc1cc(F)ccc12 [Example 35, 8-Fluoro-2-(trifluoromethyl)-10,11,12,13-tetrahydro-19H-5,18-methanodibenzo[i]dipyrido[2,3,-b:4′,3′-f][1,4,8]triazacyclotridecine-15,19(14H)-dione] | 6.9
11 | O=C1c2cc(C(F)(F)F)ccc2N2CN1c1ccc(=O)[nH]c1C/C=C\Cc1cc(F)ccc12 [Example 3, 8-Fluoro-2-(trifluoromethyl)-10,13-dihydro-19H-5,18-methanodibenzo[b,l]pyrido[3,2-f][1,5]diazacyclotridecine-15,19(14H)-dione] | 6.4
12 | O=C1c2cc(C(F)(F)F)ccc2N2CN1c1ccc(=O)[nH]c1/C=C/Cc1cc(F)ccc12 [Example 1, (E)-8-Fluoro-2-(trifluoromethyl)-13-hydro-10H, 18H,-5,17-methanodibenzo[b,k]pyrido[3,2-f][1,5]diazacyclododecine-14,18-dione] | 5.1

The remaining lines, values ahead:

Row | Nav1.8, pIC50 | SMILES
13 | 7.5 | Cl.N#Cc1cc2c(cc1Cl)C(=O)N1CN2c2ccc(F)cc2CCCNc2[nH]c(=O)ccc21 [Example 100, 2-Chloro-8-fluoro-15,19-dioxo-10,11,12,13,14,15-hexahydro-19H-5,18-methano-dibenzo[f,i]pyrido[2,3-b][1,4,8]triazacyclotridecine-3-carbonitrile, hydrochloride]
14 | 7 | CCC1NCCc2[nH]c(=O)ccc2N2CN(c3cc(C(F)(F)F)c(F)cc3C2=O)c2ccc(F)cc21.Cl (stereo not shown) [Example 126, 10-Ethyl-2,8-difluoro-3-(trifluoromethyl)-10,11,12,13-tetrahydro-19H-5,18-methanodibenzo[c,f]pyrido[3,2-j][1,5,9]triazacyclotridecine-15,19(14H)-dione hydrochloride]
15 | 7.6 | Cl.O=C1c2cc(Cl)c(F)cc2N2CN1c1ccc(=O)[nH]c1CCNCc1c2ccc(F)c1F [Example 69, 2-Chloro-3,8,9-trifluoro-10,11,12,13-tetrahydro-19H-5,18-methanodibenzo[c,f]pyrido[3,2-j][1,5,9]triazacyclotridecine-15,19(14H)-dione hydrochloride]
16 | 7.8 | Cl.O=C1c2cc(F)c(C(F)(F)F)cc2N2CN1c1ccc(=O)[nH]c1CNCCCc1cc(F)ccc12 [Example 105, 2^6,3^4-Difluoro-2^7-(trifluoromethyl)-1^1,1^2,2^1,2^2,2^3,2^4-hexahydro-7-aza-2(3,1)-quinazolina-1(5,6)-pyridina-3(1,2)-benzenacyclooctaphane-1^2,2^4-dione hydrochloride]
17 | 6.6 | C[C@@H]1NCCCc2[nH]c(=O)ccc2N2CN(c3cc(C(F)(F)F)c(F)cc3C2=O)c2ccc(F)cc21 [Example 137, (4S)-2^6,3^4-Difluoro-4-methyl-2^7-(trifluoromethyl)-1^1,1^2,2^1,2^2,2^3,2^4-hexahydro-5-aza-2(3,1)-quinazolina-1(5,6)-pyridina-3(1,2)-benzenacyclooctaphane-1^2,2^4-dione]
18 | 6.4 | Cl.O=C1c2cc(F)c(C(F)(F)F)cc2N2CN1c1ccc(=O)[nH]c1CCNCc1c2ccc(F)c1O [Example 85, 2,8-Difluoro-9-hydroxy-3-(trifluoromethyl)-10,11,12,13-tetrahydro-19H-5,18-methanodibenzo[c,f]pyrido[3,2-i][1,5,9]triazacyclotridecine-15,19(14H)-dione hydrochloride]
19 | 7.5 | O=C1c2cc(Cl)c(F)cc2N2CN1c1ccc(=O)[nH]c1NCCCc1cc(F)ccc12 [Example 96, 2-Chloro-3,8-difluoro-10,11,12,13-tetrahydro-19H-5,18-methanodibenzo[f,i]pyrido[2,3-b]-[1,4,8]triazacyclotridecine-15,19(14H)-dione]
20 | 7.7 | N#Cc1cc2c(cc1F)C(=O)N1CN2c2ccc(F)c(F)c2CCCNc2[nH]c(=O)ccc21 [Example 99, 2,8,9-Trifluoro-15,19-dioxo-10,11,12,13,14,15-hexahydro-19H-5,18-methano-dibenzo [f,i]pyrido[2,3-b][1,4,8]triazacyclotridecine-3-carbonitrile]

Same assay, conditions: HEK293 cells expressing human Nav1.8, human Navβ1 and human TREK1, P2 current, read-out: Nav1.8, pIC50 (converted)

Row | IC50 [µM] | SMILES
21 | 0.126 | C[C@@H]1NCCc2[nH]c(=O)ccc2N2CN(c3ccc(C(F)(F)F)cc3C2=O)c2ccc(F)cc21 [Example 116, (10S)-8-fluoro-10-methyl-2-(trifluoromethyl)-10,11,12,13-tetrahydro-19H-5,18-methanodibenzo[c,f]pyrido[3,2-j][1,5,9]triazacyclotridecine-15,19(14H)-dione]
22 | 0.1 | C[C@H]1NCCc2[nH]c(=O)ccc2N2CN(c3ccc(C(F)(F)F)cc3C2=O)c2ccc(F)cc21 [Example 115, (10R)-8-fluoro-10-methyl-2-(trifluoromethyl)-10,11,12,13-tetrahydro-19H-5,18-methanodibenzo[c,f]pyrido[3,2-j][1,5,9]triazacyclotridecine-15,19(14H)-dione]
